Measurements from BindingDB's records for patent US20260042754 (Nodus Oncology, 2026).

Biological target: Poly(ADP-ribose) glycohydrolase (Homo sapiens, UniProt Q86W56)
Assay: PARG Enzymatic Assay
Description: Inhibition of PARG enzymatic activity by compounds was determined as follows: Recombinant His-tagged human PARG protein expressed in Sf21 insect cells (Adipogen AG, #40T-0022) was aliquoted and stored at −80° C. until use. The artificial enzyme substrate 4-(trifluoromethyl)umbelliferone (TFMU)-ADPr was prepared essentially as described (Drown B S et al, Cell Chemical Biology 2018) and stored at −20° C. as 10 mM stock solutions in DMSO (dimethyl sulfoxide) until use. For reactions, typical final concentration of the enzyme was 1 nM and of the TFMU-ADPr 200 μM. Reactions were carried out in black 384-well low volume round bottom assay plates (Corning, #4514) in a final volume of 10 μL. To this end, PARG was diluted to 1.67 nM in reaction buffer (50 mM K2HPO4, 50 mM KCl, 10 mM β-mercaptoethanol, pH 7.4) and 6 μL were dispensed per assay well using a multichannel pipette. […] Fluorescence intensity signals were then measured after 30 minutes on an EnVision microplate reader (PerkinElmer) using 380/10 nm and 535/25 nm filters for the excitation and emission, respectively (gain: 150). […]

Sequence of Poly(ADP-ribose) glycohydrolase (Q86W56 whole entry): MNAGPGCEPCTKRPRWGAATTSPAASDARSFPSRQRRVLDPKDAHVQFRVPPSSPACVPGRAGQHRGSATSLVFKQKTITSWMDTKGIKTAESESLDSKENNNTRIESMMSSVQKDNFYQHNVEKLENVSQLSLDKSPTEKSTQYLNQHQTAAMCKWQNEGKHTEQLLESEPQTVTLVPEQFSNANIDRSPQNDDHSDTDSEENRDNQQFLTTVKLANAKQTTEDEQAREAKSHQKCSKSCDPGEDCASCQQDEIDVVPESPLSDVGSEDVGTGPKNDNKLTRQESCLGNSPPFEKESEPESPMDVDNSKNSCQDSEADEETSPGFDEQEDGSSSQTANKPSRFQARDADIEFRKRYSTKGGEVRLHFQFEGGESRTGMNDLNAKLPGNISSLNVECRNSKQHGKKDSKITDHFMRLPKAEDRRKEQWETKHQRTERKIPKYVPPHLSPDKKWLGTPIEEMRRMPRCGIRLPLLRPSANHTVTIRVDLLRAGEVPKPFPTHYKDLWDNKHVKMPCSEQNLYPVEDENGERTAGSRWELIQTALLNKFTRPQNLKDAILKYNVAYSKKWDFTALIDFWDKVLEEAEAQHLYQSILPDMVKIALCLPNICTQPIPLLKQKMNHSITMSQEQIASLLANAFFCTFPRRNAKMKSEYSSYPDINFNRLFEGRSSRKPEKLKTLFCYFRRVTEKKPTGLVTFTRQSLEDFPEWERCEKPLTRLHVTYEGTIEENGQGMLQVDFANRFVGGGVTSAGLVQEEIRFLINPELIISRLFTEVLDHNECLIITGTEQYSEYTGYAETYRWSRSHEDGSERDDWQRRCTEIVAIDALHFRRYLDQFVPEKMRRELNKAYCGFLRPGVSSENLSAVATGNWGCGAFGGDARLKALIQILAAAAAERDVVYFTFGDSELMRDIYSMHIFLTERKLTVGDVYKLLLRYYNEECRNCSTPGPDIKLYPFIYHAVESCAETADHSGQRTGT

`CO/N=c1\[nH]c2c(N3CCN(C(=O)C4(C(F)(F)F)CC4)[C@H](C)C3)cc(S(=O)(=O)NC3(C)CC3)cc2c(=O)n1Cc1cnn(C)c1` [US20260042754, Example 32] was tested, and the IC50 was < 30 nM.
